System: Cln7Δex2 mice
Test: AZ67 in vivo administration in Batten disease model
Settings: 1 nmol/mouse intracerebroventricularly every 24 h, two months
Procedure: AZ67 for in vivo usage was dissolved in 20% (wt/vol) PEG200 in PBS to a 20 mM concentration. 4 groups were generated (4-6 animals/group), namely: WT-vehicle, CLN7Δex2-vehicle, WT-AZ67, CLN7Δex2-AZ67. The canula was inserted intracerebroventricularly at the age of 8 weeks and, after at least of 15 days of recovery, we injected the AZ67 at the dose identified previously (l nmol/mouse) every 24 h. The duration of the experiment was determined by the presence of hindlimb clasping the CLN7Δex2-control (vehicle), being this time two months. After this, the animals were perfused, and their brains dissected to be investigated by immunofluorescence and electron microscopy (EM).
Mice (5 months for AZ67 intraventricular injections; 3 months for mCAT expression approach) were anaesthetized by intraperitoneal injection of a mixture of xylazine hydrochloride (Rompun; Bayer) and ketamine hydrochloride/chlorbutol (Imalgene; Merial) (1:4) at 1 ml per kg body weight and then perfused intra-aortically with 0.9% NaCl followed by 5 ml p/g body weight of Somogyi (4% (wt/vol) paraformaldehyde, and 0.2% (vol/vol) picric acid, in 0.1 M PB; pH 7.4). After perfusion, brains were dissected out sagitally in two parts and post-fixed with Somogyi for 2 h at room temperature. Brain blocks were rinsed successively for 10 min, 30 min and 2 h with 0.1 M PB solution and cryoprotected in 10%, 20% and 30% (wt/vol) sucrose in PB sequentially, until they sank. After cryoprotection, 40-m-thick sagittal sections were obtained with a freezing-sliding cryostat (Leica). Sectioning of WT and Cln7Δex2 brains were performed under the same conditions and sessions. The sections were collected serially in a 12-well plate in 0.1 M PB, rinsed three times for 10 min in 0.1 M PB and used for subsequent immunohistochemistry and lipofuscin observation. The section-containing wells that were not used were kept in freezer mix (30% (vol/vol) polyethylene glycol, 30% (vol/vol) glycerol in 0.1 M PB) at −20° C. […]
Sections were examined with epifluorescence and the appropriate filter sets under an Operetta CLS high-content imaging system (PerkinElmer). […] Images were analysed with the Harmony software with PhenoLOGIC (PerkinElmer). Interest brain areas (cortex, hippocampus and cerebellum) were selected and subsequently quantified as mean intensity per area by using the ‘measure rectangle’ function, which represents the mean intensity of a channel per selected area.

Cc1noc(C)c1Cn1cc(C#N)c2cc(Oc3ccc(NC(=O)[C@@H]4CCCN4)cc3)ccc21 [AZ67, (2S)-N-[4-({3-cyano-1-[(3,5-dimethyl-1,2-oxazol-4-yl)methyl]-1H-indol-5-yl}oxy)phenyl]pyrrolidine-2-carboxamide]
prevented: accumulation of SCMAS in the cortex | accumulation of lipofuscin in the cortex | accumulation of reactive astroglia in the cortex | hindlimb paralysis
